Like-named read-outs stand apart in the source and are kept apart here.
Target: T1, EGFR L858R-T790M (Homo sapiens, UniProt P00533, L858R/T790M)
T1 construct: NCI-H1975 (harboring EGFR heterozygous L858R-T790M mutations); host or cells: NCI-H1975
Experiment: EGFR degradation, Total EGFR (L858R-specific) HTRF, NCI-H1975
Format: cell-based
Details: NCI-H1975 cells, 6 hours, Total EGFR HTRF, read-out: H1975 EGFR DC50
Procedure, shortened: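 HTRF read-outs: pY1068 phospho-EGFR for IC50; total EGFR (pan-EGFR in A431, L858R-specific in mutant lines) for DC50. Compounds were titrated 11 points, half-log, from 10 μM in duplicate onto cells in 10% FBS RPMI, incubated 6 h at 37°C.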

T1 sequence (P00533 25-1210 T790M/L858R): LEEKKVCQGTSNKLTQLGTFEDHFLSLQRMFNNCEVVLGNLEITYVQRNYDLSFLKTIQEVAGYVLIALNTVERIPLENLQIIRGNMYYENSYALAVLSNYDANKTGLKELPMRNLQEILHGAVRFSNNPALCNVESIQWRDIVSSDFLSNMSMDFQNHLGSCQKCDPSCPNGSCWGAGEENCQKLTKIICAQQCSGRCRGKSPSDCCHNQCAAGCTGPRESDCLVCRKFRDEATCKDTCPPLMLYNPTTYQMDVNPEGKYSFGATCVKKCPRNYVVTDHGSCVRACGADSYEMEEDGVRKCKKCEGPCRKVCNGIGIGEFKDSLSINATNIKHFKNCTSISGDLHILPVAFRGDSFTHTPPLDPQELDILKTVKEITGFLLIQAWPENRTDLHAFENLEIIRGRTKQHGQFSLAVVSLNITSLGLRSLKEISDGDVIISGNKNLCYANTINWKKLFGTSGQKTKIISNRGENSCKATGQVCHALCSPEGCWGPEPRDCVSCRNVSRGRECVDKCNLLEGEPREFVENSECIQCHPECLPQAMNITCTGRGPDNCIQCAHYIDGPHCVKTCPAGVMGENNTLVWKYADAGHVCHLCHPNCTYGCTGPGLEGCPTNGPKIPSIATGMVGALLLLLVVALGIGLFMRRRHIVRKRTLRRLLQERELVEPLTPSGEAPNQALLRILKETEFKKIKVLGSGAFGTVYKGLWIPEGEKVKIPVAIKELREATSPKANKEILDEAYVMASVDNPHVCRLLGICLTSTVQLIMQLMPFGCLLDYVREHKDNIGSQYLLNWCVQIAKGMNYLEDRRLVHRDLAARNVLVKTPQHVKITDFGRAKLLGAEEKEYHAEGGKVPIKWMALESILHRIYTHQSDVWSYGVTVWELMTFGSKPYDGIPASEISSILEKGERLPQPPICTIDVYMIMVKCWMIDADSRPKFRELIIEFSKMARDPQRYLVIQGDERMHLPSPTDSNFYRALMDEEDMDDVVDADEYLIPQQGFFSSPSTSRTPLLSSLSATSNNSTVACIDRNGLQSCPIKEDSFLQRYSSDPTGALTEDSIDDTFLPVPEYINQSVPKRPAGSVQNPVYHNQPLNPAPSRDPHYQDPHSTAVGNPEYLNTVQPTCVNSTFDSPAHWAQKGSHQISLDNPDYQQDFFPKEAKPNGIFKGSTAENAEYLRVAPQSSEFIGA

With `Cn1nc(N2CCC(=O)NC2=O)c2ccc(C3CCN(C(=O)C4CC5(C4)CN(c4ccc(-c6cc(F)c7c(c6)C(=O)N(C(C(=O)Nc6nccs6)c6ncn8c6CCC8)C7)cc4)C5)CC3(F)F)cc21` (stereo not shown) [Compound 155, 2-(6,7-dihydro-5H-pyrrolo[1,2-c]imidazol-1-yl)-2-[6-[4-[6-[4-[3-(2,4-dioxohexahydropyrimidin-1-yl)-1-methyl-indazol-6-yl]-3,3-difluoro-piperidine-1-carbonyl]-2-azaspiro[3.3]heptan-2-yl]phenyl]-4-fluoro-1-oxo-isoindolin-2-yl]-N-thiazol-2-yl-acetamide] the DC50 (Table 9B) was less than 50 nM.

In the case of `O=C1CCC(Nc2cc(F)c(N3CCC(O)(CC(=O)N4CCC5(CC4)CN(c4ccc(-c6cc(F)c7c(c6)C(=O)N(C(C(=O)Nc6nccs6)c6ncn8c6CCC8)C7)cc4)C5)CC3)c(F)c2)C(=O)N1` (single isomer, unassigned; isomer 1) [Compound 137, 2-(6,7-dihydro-5H-pyrrolo[1,2-c]imidazol-1-yl)-2-[6-[4-[7-[2-[1-[4-[2,6-dioxo-3-piperidyl]amino]-2,6-difluoro-phenyl]-4-hydroxy-4-piperidyl]acetyl]-2,7-diazaspiro[3.5]nonan-2-yl]phenyl]-4-fluoro-1-oxo-isoindolin-2-yl]-N-thiazol-2-yl-acetamide, isomer 1], the DC50 (Table 9B) is reported as 50 to 150 nM.

`O=C1CCC(Nc2ccc(C3CCN(CC(=O)N4CCN(c5ccc(-c6cc(Cl)c7cn(C(C(=O)Nc8nccs8)c8ncn9c8CCC9)nc7c6Cl)cc5)CC4)CC3)cc2)C(=O)N1` (racemic) [Compound 61, (2RS)-2-[4,7-Dichloro-6-[4-[4-[2-[4-[4-[[(3RS)-2,6-dioxo-3-piperidyl]amino]phenyl]-1-piperidyl]acetyl]piperazin-1-yl]phenyl]indazol-2-yl]-2-(6,7-dihydro-5H-pyrrolo[1,2-c]imidazol-1-yl)-N-thiazol-2-yl-acetamide] showed a DC50 (Table 9A) of 50 to 150 nM.

Compound `Cn1nc(N2CCC(=O)NC2=O)c2ccc(C3CCN(CC(=O)N4CCC5(CC4)CN(c4ccc(-c6cc(F)c7c(c6)C(=O)N(C(C(=O)Nc6nccs6)c6ncn8c6CCC8)C7)cc4)C5)CC3(F)F)cc21` (stereo not shown) [Compound 174] has a DC50 (Table 9B) of less than 50 nM.

In the case of `O=C1CCN(c2ccc(N3CCC(O)(CC(=O)N4CC5(CCN(c6ccc(-c7cc(F)c8c(c7)C(=O)N(C(C(=O)Nc7nccs7)c7ncn9c7CCC9)C8)cc6)CC5)C4)CC3)c(F)c2)C(=O)N1` (stereo not shown) [Compound 163, 2-(6,7-dihydro-5H-pyrrolo[1,2-c]imidazol-1-yl)-2-[6-[4-[2-[2-[1-[4-(2,4-dioxohexahydropyrimidin-1-yl)-2-fluoro-phenyl]-4-hydroxy-4-piperidyl]acetyl]-2,7-diazaspiro[3.5]nonan-7-yl]phenyl]-4-fluoro-1-oxo-isoindolin-2-yl]-N-thiazol-2-yl-acetamide], the DC50 (Table 9B) is reported as less than 50 nM.

`O=C1CCC(Nc2ccc(C3CCN(C(=O)CN4CCC(c5ccc(-c6cc(F)c7c(c6)C(=O)N(C(C(=O)Nc6nccs6)c6ncn8c6CCC8)C7)cc5)CC4)CC3)cc2)C(=O)N1` (stereo not shown) [Compound 26, 2-(6,7-dihydro-5H-pyrrolo[1,2-c]imidazol-1-yl)-2-[6-[4-[1-[2-[4-[4-[(2,6-dioxo-3-piperidyl)amino]phenyl]-1-piperidyl]-2-oxo-ethyl]-4-piperidyl]phenyl]-4-fluoro-1-oxo-isoindolin-2-yl]-N-thiazol-2-yl-acetamide] was tested, and the DC50 (Table 9A) was less than 50 nM.

Work on `Cn1nc(N2CCC(=O)NC2=O)c2ccc(N3CCC(O)(CC(=O)N4CC5(C4)CN(c4ccc(-c6cc(F)c7c(c6)C(=O)N(C(C(=O)Nc6nccs6)c6ncn8c6CCC8)C7)cc4)C5)CC3)cc21` (stereo not shown) [Compound 109, 2-(6,7-dihydro-5H-pyrrolo[1,2-c]imidazol-1-yl)-2-(6-(4-(6-(2-(1-(3-(2,4-dioxotetrahydropyrimidin-1(2H)-yl)-1-methyl-1H-indazol-6-yl)-4-hydroxypiperidin-4-yl)acetyl)-2,6-diazaspiro[3.3]heptan-2-yl)phenyl)-4-fluoro-1-oxoisoindolin-2-yl)-N-(thiazol-2-yl)acetamide] yielded a DC50 (Table 9B) of less than 50 nM.

`O=C1CCC(Nc2ccc(N3CCC(O)(CC(=O)N4CC5(C4)CN(c4ccc(-c6ccc7cn(C(C(=O)Nc8nccs8)c8ncn9c8CCC9)nc7c6F)cn4)C5)CC3)cc2F)C(=O)N1` (stereo not shown) [Compound 71, 2-(6,7-dihydro-5H-pyrrolo[1,2-c]imidazol-1-yl)-2-[6-[6-[2-[2-[1-[4-[(2,6-dioxo-3-piperidyl)amino]-3-fluoro-phenyl]-4-hydroxy-4-piperidyl]acetyl]-2,6-diazaspiro[3.3]heptan-6-yl]-3-pyridyl]-7-fluoro-indazol-2-yl]-N-thiazol-2-yl-acetamide] was tested, and the DC50 (Table 9B) was less than 50 nM.

In the case of `O=C1CCC(Nc2ccc(N3CCC(O)(CC(=O)N4CC5(C4)CN(c4ccc(-c6ccc7cn(C(C(=O)Nc8nccs8)c8ncn9c8CCC9)nc7c6F)cn4)C5)CC3)c(F)c2)C(=O)N1` (stereo not shown) [Compound 74, 2-(6,7-dihydro-5H-pyrrolo[1,2-c]imidazol-1-yl)-2-[6-[6-[2-[2-[1-[4-[(2,6-dioxo-3-piperidyl)amino]-2-fluoro-phenyl]-4-hydroxy-4-piperidyl]acetyl]-2,6-diazaspiro[3.3]heptan-6-yl]-3-pyridyl]-7-fluoro-indazol-2-yl]-N-thiazol-2-yl-acetamide], the DC50 (Table 9B) is reported as less than 50 nM.

For `O=C1CCC(Oc2ccc(N3CCN(CC(=O)N4CCC(NC(=O)c5ccc(C#Cc6cc(F)c7c(c6)C(=O)N(C(C(=O)Nc6nccs6)c6ncn8c6CCC8)C7)cn5)CC4)CC3)cc2)C(=O)N1` (stereo not shown) [Compound 51, 5-[2-[2-[1-(6,7-dihydro-5H-pyrrolo[1,2-c]imidazol-1-yl)-2-oxo-2-(thiazol-2-ylamino)ethyl]-7-fluoro-3-oxo-isoindolin-5-yl]ethynyl]-N-[1-[2-[4-[4-[(2,6-dioxo-3-piperidyl)oxy]phenyl]piperazin-1-yl]acetyl]-4-piperidyl]pyridine-2-carboxamide], the DC50 (Table 9A) was less than 50 nM.

`Cn1nc(N2CCC(=O)NC2=O)c2ccc([C@H]3CCN(C(=O)CN4CCC5(CC4)CN(c4ccc(-c6cc(F)c7c(c6)C(=O)N(C(C(=O)Nc6nccs6)c6ncn8c6CCC8)C7)cc4)C5)CC3(F)F)cc21` (stereo partly drawn) [Compound 140, 2-(6,7-dihydro-5H-pyrrolo[1,2-c]imidazol-1-yl)-2-[6-[4-[7-[2-[(4R)-4-[3-(2,4-dioxohexahydropyrimidin-1-yl)-1-methyl-indazol-6-yl]-3,3-difluoro-1-piperidyl]-2-oxo-ethyl]-2,7-diazaspiro[3.5]nonan-2-yl]phenyl]-4-fluoro-1-oxo-isoindolin-2-yl]-N-thiazol-2-yl-acetamide] was tested, and the DC50 (Table 9B) was less than 50 nM.

`Cn1nc(N2CCC(=O)NC2=O)c2cc(F)c(N3CCN(CC(=O)N4CC5(C4)CN(c4ccc(-c6cc(F)c7c(c6)C(=O)N(C(C(=O)Nc6nccs6)c6ncn8c6CCC8)C7)cc4)C5)CC3)cc21` (stereo not shown) [Compound 123, 2-(6,7-dihydro-5H-pyrrolo[1,2-c]imidazol-1-yl)-2-[6-[4-[2-[2-[4-[3-(2,4-dioxohexahydropyrimidin-1-yl)-5-fluoro-1-methyl-indazol-6-yl]piperazin-1-yl]acetyl]-2,6-diazaspiro[3.3]heptan-6-yl]phenyl]-4-fluoro-1-oxo-isoindolin-2-yl]-N-thiazol-2-yl-acetamide] gave a DC50 (Table 9B) of less than 50 nM.

Work on `O=C1CCC(Nc2cc(F)c(N3CCC(O)(CC(=O)N4CC5(C4)CN(c4ccc(-c6cc(F)c7c(c6)C(=O)N(C(C(=O)Nc6nccs6)c6ncn8c6CCC8)C7)cc4)C5)CC3)c(Cl)c2)C(=O)N1` (single isomer, unassigned; isomer 1) [Compound 145, 2-[6-[4-[2-[2-[1-[2-chloro-4-[[2,6-dioxo-3-piperidyl]amino]-6-fluoro-phenyl]-4-hydroxy-4-piperidyl]acetyl]-2,6-diazaspiro[3.3]heptan-6-yl]phenyl]-4-fluoro-1-oxo-isoindolin-2-yl]-2-(6,7-dihydro-5H-pyrrolo[1,2-c]imidazol-1-yl)-N-thiazol-2-yl-acetamide, isomer 1] yielded a DC50 (Table 9B) of 50 to 150 nM.

With `O=C1CCC(Nc2ccc(N3CCC(O)(CC(=O)N4CC5(CCN(c6ccc(-c7cc(F)c8c(c7)C(=O)N(C(C(=O)Nc7nccs7)c7ncn9c7CCC9)C8)cc6)CC5)C4)CC3)c(Cl)c2)C(=O)N1` (single isomer, unassigned; isomer 1) [Compound 128, 2-[6-[4-[2-[2-[1-[2-chloro-4-[[2,6-dioxo-3-piperidyl]amino]phenyl]-4-hydroxy-4-piperidyl]acetyl]-2,7-diazaspiro[3.5]nonan-7-yl]phenyl]-4-fluoro-1-oxo-isoindolin-2-yl]-2-(6,7-dihydro-5H-pyrrolo[1,2-c]imidazol-1-yl)-N-thiazol-2-yl-acetamide, isomer 1] the DC50 (Table 9B) was less than 50 nM.

In the case of `Cn1nc(N2CCC(=O)NC2=O)c2ccc(C3CCN(CC(=O)N4CCN(c5ccc(-c6cc(F)c7cn(C(C(=O)Nc8nccs8)c8ncn9c8CCC9)nc7c6)cn5)CC4)CC3(F)F)cc21` (stereo not shown) [Compound 72, 2-(6,7-dihydro-5H-pyrrolo[1,2-c]imidazol-1-yl)-2-(6-(6-(4-(2-(4-(3-(2,4-dioxotetrahydropyrimidin-1(2H)-yl)-1-methyl-1H-indazol-6-yl)-3,3-difluoropiperidin-1-yl)acetyl)piperazin-1-yl)pyridin-3-yl)-4-fluoro-2H-indazol-2-yl)-N-(thiazol-2-yl)acetamide], the DC50 (Table 9B) is reported as less than 50 nM.

With `O=C1CCC(N2Cc3c(OC4CCN(C(=O)CCCN5CCN(c6ccc(-c7ccc8cn(C(C(=O)Nc9nccs9)c9ncn%10c9CCC%10)nc8c7F)cn6)CC5)CC4)cccc3C2=O)C(=O)N1` (racemic) [Compound 62, (2RS)-2-(6,7-Dihydro-5H-pyrrolo[1,2-c]imidazol-1-yl)-2-[7-fluoro-6-[6-[4-[4-oxo-4-[4-[1-oxo-2-[(3RS)-2,6-dioxo-3-piperidyl]isoindolin-4-yl]oxy-1-piperidyl]butyl]piperazin-1-yl]-3-pyridyl]indazol-2-yl]-N-thiazol-2-yl-acetamide] the DC50 (Table 9A) was less than 50 nM.

Source: US20240158418A1 (C4 Therapeutics, Inc., priority 2021, published 2024)
